These results are taken from patent US7611691B2, “Compounds for treatment of copper overload” (The Curators of the University of Missouri, priority 2002, dated 2009).

The nature of data set [1]: Reduction of copper levels in swine after oral Cu loading. The format is in vivo. The following applies: 15 mg/kg twice daily for three days. The procedure: Eight weanling pigs weighing 10-12 kg were randomly assigned to one of three groups, receiving no thpalanine (N=2), thpalanine via gavage (N=3) or thpalanine intravenously (N=3). All eight pigs underwent 21 consecutive days of oral Cu loading with 10 mg of Cu from copper sulfate per kg of body weight twice daily. Loading was determined by protocol in Mineral Tolerance of Domestic Animals. Pigs also received 10 mg/kg body weight of Cu in their diet. After 21 days dosing with copper sulfate was discontinued. Thpalanine was given to the two drug-treated groups beginning two days following the end of Cu loading. Each of the thpalanine treatment groups (oral and intravenous) received 15 mg thpalanine per kg body weight twice daily for three consecutive days. Four 24 hour urine collections were done to determine urinary Cu excretion beginning 24 hours prior to thpalanine treatment.
Following day 3 of treatment, the pigs were euthanized and a sample of liver/kidney were collected and stored at −10° F. until copper analyses. Statistical analysis was performed using ANOVA. Multiple pairwise comparisons were made using the Tukey test and statistical significance was set at P<0.05.

A short description of data set [2]: Stability of THPAL in bovine serum albumin (BSA) solution by 31P NMR. The format is physicochemical. The procedure: 50 mg of BSA (3.3%) was dissolved in 1.5 ml of water. 30 mg of THPAL (0.06 M) was added to this to obtain a clear solution. The measurements of stable (or unoxidized) forms of THPAL in BSA were performed using ^31P NMR spectroscopy. The ^31P NMR resonance of THPAL is very sensitive to alterations on the back bone structure. The temperature of the mixture of THPAL and BSA in water was maintained at 9-12° C.
There was no detectable change in the ^31P NMR resonance until 12-15 hours after mixing the THPAL and BSA. After 24 hours, about 20% THPAL was transferred to uncharacterized compound.

Data set [3] is described as follows: Attempted oxidation of THPAL with molecular oxygen. It counts as physicochemical. The following applies: aerated water, refluxed for several hours under air. The procedure:
THPAL (0.5 g, […]) was dissolved in aerated water (25 ml).

A short description of data set [4]: Oxidation of THPAL using gaseous hydrogen peroxide. It counts as physicochemical. The following applies: aqueous solution exposed to hydrogen peroxide vapors; after two days.
Data set [5] can be described thus: Oxidation of THPAL by 35% aqueous H2O2. It counts as physicochemical. The procedure:
Hydrogen peroxide (0.2 ml, 35%, […]) was added dropwise to a solution of THPAL (0.5 g, 0.014 mmol) in water at room temperature. The reaction mixture was stirred at room temperature for one hour. The solvent was then removed under reduced pressure. The crude product was washed with methanol (5×4 ml), and then characterized as pure O═P(CH2NHCH(CH3)—COOH)3 by NMR spectroscopy. ^31P{^1H} NMR (D2O): 37.07 (s); ^1H NMR (D2O): 1.60 (d, CH3, 9H), 3.96-3.89 (m. CH2 and CH, 9H); ^13C NMR (D2O): 42.9 (d, P—CH2, JC-P=70.05 Hz), 59.6 (d, NH—CH, ^2JC-P=8.25 Hz), 15.59 (s, CH3), 175.15 (s, COOH).

Data set [6] is described as follows: Oxygen radical absorbance capacity (ORAC hydro FL). The following applies: Fluorescein probe; Trolox calibration standard. An excerpt: (§1) The NORAC value of 18.8 μmolTE/g found for TBPAL (Table 1) is among the highest ever reported for antioxidant drugs.
Trolox, a water-soluble Vitamin E analog, was used as the calibration standard and the ORAC result is expressed as micromole Trolox equivalent (TE) per gram.

Data set [7] can be described thus: Hydroxyl radical absorbance capacity (HORAC). The following applies: Gallic Acid calibration standard.
Description: as §1
^+Gallic Acid was used as the calibration standard and the HORAC result is expressed as mg Gallic Acid equivalent (GAE) per gram.

Data set [8] is described as follows: Nitricoxide radical absorbance capacity (NORAC).
Description: as §1
^Trolox was used as the calibration standard and the NORAC result is expressed as μmole Trolox equivalent (TE) per gram.

Structures are written as SMILES.

On to `CC(NCP(CNC(C)C(=O)O)CNC(C)C(=O)O)C(=O)O` (centres unmarked) [THPAL, 2-[({Bis-[(1-carboxy-ethylamino)-methyl]-phosphanyl}-methyl)-amino]-propionic acid], for which the “copper levels in swine kidneys” value in data set [1] (Cu-loaded weanling pigs, intravenous) is given as “significantly reduced”. In addition, in data set [1] (pigs, oral or intravenous), the “adverse effects (clinical observations, rate of gain, gross necropsy)” value is on record as “no adverse effects”. In addition, in data set [2] (3.3% BSA in water, 0.06 M THPAL, 9-12° C.), the “time with no detectable change in the 31P NMR resonance after mixing THPAL and BSA” value lay in the range of 12 to 15 h. Also, the “THPAL transferred to uncharacterized compound” value in data set [2] (BSA solution, after 24 hours, 9-12° C.) is “about 20%”. Moreover, the “oxidation state of THPAL in BSA solution (31P NMR)” value in data set [2] (after 72 hours) was “remained unoxidized”. Further, the “oxidative stability of THPAL in BSA solution (31P NMR)” value in data set [2] (after five days) is “no oxidation”. The “stability in BSA solutions” value in data set [2] (overall conclusion) is “stable”. Further, in data set [3], the “oxidation or decomposition by 31P NMR” value is listed as “did not show any oxidation or detectable decomposition”. The “conversion to O═P(CH2NHCH(CH3)COOH)3” value in data set [4] was “Complete conversion”. The “oxidation of THPAL to the corresponding oxide by oxygen radicals generated by peroxide” value in data set [5] is “complete oxidation”. Moreover, the ORAChydroFL in data set [6] stood at 31 μmoleTE/g. In addition, in data set [7], the HORAC result is on record as “Not Detectable”. Also, the NORAC value in data set [8] turned out to be 18.8 μmolTE/g. Moreover, the NORAC in data set [8] (Trolox calibration standard) came to 18.81 μmoleTE/g.
